ChEMBL document CHEMBL6120986, “In silico inspired design of urea noscapine congeners as anticancer agents: Chemical synthesis and experimental evaluation using breast cancer cells and a xenograft mouse model” (Eur J Med Chem, 2025)
The source made the active and inactive calls. The calls are words filed in the database; no cut-off is given here.

Key:
[1] = organism: Capra hircus; test: Binding affinity to goat brain tubulin assessed as tryptophan fluorescence change incubated for 45 mins by tryptophan quenching assay; settings: dose 50-200 µM
[2] = Binding affinity in goat brain tubulin assessed as equilibrium dissociation constant incubated for 45 mins by fluorescence titration method; parameters: species or system Capra hircus
[3] = test system: MCF7; test: Antiproliferative activity against human MCF7 cells assessed as inhibition of cell proliferation incubated for 72 hrs by SRB assay; assay type: functional, cell-based; settings: MCF7, 72 h
[4] = test system: MDA-MB-231; test: Antiproliferative activity against human MDA-MB-231 cells assessed as inhibition of cell proliferation incubated for 72 hrs by SRB assay; assay type: functional, cell-based; settings: MDA-MB-231, 72 h
[5] = Cytotoxicty against HEK cells incubated for 72 hrs by SRB assay; assay type: toxicity, cell-based; settings: human
[6] = test system: MDA-MB-231; test: Inhibition of colony formation in human MDA-MB-231 cells incubated for 24 hrs by crystal violet staining based colony formation assay; assay type: functional, cell-based; settings: dose 1-20 µM
[7] = test system: MDA-MB-231; test: Induction of apoptosis in human MDA-MB-231 cells assessed as membrane blebbing at 6.65 uM (IC50) measured after 72 hrs by fluorescence microscopic analysis; assay type: functional, cell-based
[8] = test system: MDA-MB-231; test: Induction of apoptosis in human MDA-MB-231 cells assessed as increase in fragmented nuclei at 6.65 uM (IC50) measured after 72 hrs by fluorescence microscopic analysis; assay type: functional, cell-based
[9] = test system: MDA-MB-231; test: Induction of apoptosis in human MDA-MB-231 cells assessed as formation of apoptotic bodies at 6.65 uM (IC50) measured after 72 hrs by fluorescence microscopic analysis; assay type: functional, cell-based
[10] = test system: MDA-MB-231; test: Induction of apoptosis in human MDA-MB-231 cells assessed as early apoptotic cells at 6.56 uM incubated for 72 hrs by Annexin/FITC based FACS analysis (reference value: 2%); assay type: functional
[11] = test system: MDA-MB-231; test: Induction of apoptosis in human MDA-MB-231 cells assessed as late apoptotic cells at 6.56 uM incubated for 72 hrs by Annexin/FITC based FACS analysis (reference value: 3%); assay type: functional
[12] = test system: MDA-MB-231; test: Induction of apoptosis in human MDA-MB-231 cells assessed as increase in TUNEL positive nuclei at 6.56 uM by TUNEL assay relative to control; assay type: functional, cell-based
[13] = test system: MDA-MB-231; test: Induction of intracellular ROS generation in human MDA-MB-231 cells assessed as increase in fluorescence intensity at 6.56 uM incubated for 48 hrs by H2DCFDA fluorescence assay; assay type: functional, cell-based
[14] = test system: MDA-MB-231; test: Induction of cell cycle arrest in human MDA-MB-231 cells assessed as increase in accumulation of cells at G2/M phase at 6.65 uM incubated for 72 hrs by PI staining based FACS analysis relative to control; assay type: functional
[15] = test system: MDA-MB-231; test: Induction of cell cycle arrest in human MDA-MB-231 cells assessed as accumulation of hypodiploid cells at sub-G1 phase at 6.65 uM IC50 incubated for 72 hrs by FACS analysis; assay type: functional, cell-based
[16] = test system: Mitochondrial membrane; test: Induction of mitochondrial membrane potential loss in human MDA-MB-231 cells assessed as decrease in red fluorescence incubated for 48 hrs by JC-1 staining based fluorescence microscopic analysis; assay type: cell membranes
[17] = test system: Mitochondrial membrane; test: Induction of mitochondrial membrane potential loss in human MDA-MB-231 cells assessed as increase in blue fluorescence incubated for 48 hrs by […] staining based fluorescence microscopic analysis; assay type: cell membranes
[18] = test system: Mitochondrial membrane; test: Induction of mitochondrial membrane potential loss in human MDA-MB-231 cells assessed as increase in green fluorescence incubated for 48 hrs by rhodamine-123 staining based fluorescence microscopic analysis; assay type: cell membranes
[19] = test system: MCF7; test: Antitumor activity against human MCF7 cells xenografted in BALB/c athymic mouse assessed as reduction in tumor volume at 150 mg/kg, po administrated for 30 days (reference value: 1.63 cm^3); assay type: functional; settings: time 30 day
[20] = Toxicity in BALB/c athymic mouse xenografted with human MCF-7 cells assessed as change in body weight at 150 mg/kg, po administrated daily for 30 days; assay type: organism-based; settings: in vivo, 720 h, time 30 day
[21] = Toxicity in BALB/c athymic mouse assessed as effect on hepatic lobules morphology at 150 mg/kg, po by Hematoxylin and eosin staining based analysis; assay type: organism-based; settings: in vivo
[22] = Toxicity in BALB/c athymic mouse assessed as effect on glomeruli morphology at 150 mg/kg, po by Hematoxylin and eosin staining based analysis; assay type: organism-based; settings: in vivo
[23] = Toxicity in BALB/c athymic mouse assessed as effect on proximal tubules morphology at 150 mg/kg, po by Hematoxylin and eosin staining based analysis; assay type: organism-based; settings: in vivo
[24] = Toxicity in BALB/c athymic mouse assessed as effect on distal tubules morphology at 150 mg/kg, po by Hematoxylin and eosin staining based analysis; assay type: organism-based; settings: in vivo
[25] = Toxicity in BALB/c athymic mouse assessed as effect on interstitium morphology at 150 mg/kg, po by Hematoxylin and eosin staining based analysis; assay type: organism-based; settings: in vivo
[26] = Toxicity in BALB/c athymic mouse assessed as effect on blood arteries morphology at 150 mg/kg, po by Hematoxylin and eosin staining based analysis; assay type: organism-based; settings: in vivo
[27] = Toxicity in BALB/c athymic mouse assessed as effect on cerebral cortex morphology at 150 mg/kg mg/kg, po by Hematoxylin and eosin staining based analysis; assay type: organism-based; settings: in vivo
[28] = Toxicity in BALB/c athymic mouse assessed as effect on alveoli morphology at 150 mg/kg mg/kg, po by Hematoxylin and eosin staining based analysis; assay type: organism-based; settings: in vivo
[29] = Toxicity in female BALB/c athymic mouse assessed as effect on bronchial morphology at 150 mg/kg, po by Hematoxylin and eosin staining based analysis; assay type: organism-based; settings: in vivo
[30] = Toxicity in female BALB/c athymic mouse assessed as AST level at 150 mg/kg/day, po (reference value: 105.92 +/- 6.41 U/L); assay type: organism-based; settings: in vivo
[31] = Toxicity in female BALB/c athymic mouse assessed as creatinine level at 150 mg/kg/day, po (reference value: 0.690 +/- 0.05 mg/dl); assay type: organism-based; settings: in vivo
[32] = Toxicity in female BALB/c athymic mouse assessed as ALT level at 150 mg/kg/day, po (reference value: 29.79 +/- 3.15 U/L); assay type: organism-based; settings: in vivo
[33] = Toxicity in female BALB/c athymic mouse assessed as ALK PHOS level at 150 mg/kg/day, po (reference value: 78.59 +/- 5.85 U/L); assay type: organism-based; settings: in vivo
[34] = Toxicity in female BALB/c athymic mouse assessed as BUN level at 150 mg/kg/day, po (reference value: 10.19 +/- 2.68 mg/dl); assay type: organism-based; settings: in vivo
[35] = Toxicity in female BALB/c athymic mouse assessed as bilirubin total level at 150 mg/kg/day, po (reference value: 0.673 +/- 0.01 mg/dl); assay type: organism-based; settings: in vivo
[36] = Toxicity in female BALB/c athymic mouse assessed as bilirubin direct level at 150 mg/kg/day, po (reference value: 0.298 +/- 0.07 mg/dl); assay type: organism-based; settings: in vivo
[37] = Toxicity in female BALB/c athymic mouse assessed as bilirubin indirect level at 150 mg/kg/day, po (reference value: 3.05 +/- 0.32 mg/dl); assay type: organism-based; settings: in vivo
[38] = Toxicity in female BALB/c athymic mouse assessed as albumin level at 150 mg/kg/day, po (reference value: 6.31 +/- 0.41 g/dl); assay type: organism-based; settings: in vivo
[39] = Toxicity in female BALB/c athymic mouse assessed as total protein level at 150 mg/kg/day, po (reference value: 6.88 +/- 0.15 g/dl); assay type: organism-based; settings: in vivo
[40] = Toxicity in female BALB/c athymic mouse assessed as monocyte count at 150 mg/kg/day, po (reference value: 0.39 +/- 0.03 %); assay type: organism-based; settings: in vivo
[41] = Toxicity in female BALB/c athymic mouse assessed as eosinophil count at 150 mg/kg/day, po (reference value: 0.84 +/- 0.04 %); assay type: organism-based; settings: in vivo
[42] = Toxicity in female BALB/c athymic mouse assessed as glucose level at 150 mg/kg/day, po (reference value: 98.47 +/- 3.29 mg/dl); assay type: organism-based; settings: in vivo
[43] = Toxicity in female BALB/c athymic mouse assessed as calcium level at 150 mg/kg/day, po (reference value: 8.73 +/- 0.10 mg/dl); assay type: organism-based; settings: in vivo
[44] = Toxicity in female BALB/c athymic mouse assessed as sodium level at 150 mg/kg/day, po (reference value: 144.51 +/- 0.85 mEq/L); assay type: organism-based; settings: in vivo
[45] = Toxicity in female BALB/c athymic mouse assessed as potassium level at 150 mg/kg/day, po (reference value: 3.30 +/- 0.83 mEq/L); assay type: organism-based; settings: in vivo
[46] = Toxicity in female BALB/c athymic mouse assessed as Chlorine level at 150 mg/kg/day, po (reference value: 105.63 +/- 4.46 mEq/L); assay type: organism-based; settings: in vivo
[47] = Toxicity in female BALB/c athymic mouse assessed as WBC count at 150 mg/kg/day, po (reference value: 4.50 +/- 2.20 10^3/uL); assay type: organism-based; settings: in vivo
[48] = Toxicity in female BALB/c athymic mouse assessed as RBC count at 150 mg/kg/day, po (reference value: 5.84 +/- 0.30 10^6/uL); assay type: organism-based; settings: in vivo
[49] = Toxicity in female BALB/c athymic mouse assessed as hemoglobin concentration at 150 mg/kg/day, po (reference value: 16.59 +/- 0.60 g/dl); assay type: organism-based; settings: in vivo
[50] = Toxicity in female BALB/c athymic mouse assessed as hematocrit at 150 mg/kg/day, po (reference value: 41.34 +/- 0.30 %); assay type: organism-based; settings: in vivo
[51] = Toxicity in female BALB/c athymic mouse assessed as mean corpuscular volume at 150 mg/kg/day, po (reference value: 53.06 +/- 0.06 fL); assay type: organism-based; settings: in vivo
[52] = Toxicity in female BALB/c athymic mouse assessed as mean corpuscular hemoglobin measured per cell at 150 mg/kg/day, po (reference value: 28.62 +/- 0.08 pg/cell); assay type: organism-based; settings: in vivo
[53] = Toxicity in female BALB/c athymic mouse assessed as mean corpuscular hemoglobin concentration at 150 mg/kg/day, po (reference value: 35.86 +/- 0.24 g/dl); assay type: organism-based; settings: in vivo
[54] = Toxicity in female BALB/c athymic mouse assessed as platelet at 150 mg/kg/day, po (reference value: 95.11 +/- 7.23 10^3/uL); assay type: organism-based; settings: in vivo

For `COc1ccc2c(c1OC)C(=O)O[C@@H]2[C@H]1c2c(c(NC(=O)Nc3ccc(Cl)cc3Cl)c3c(c2OC)OCO3)CCN1C`, the Activity [1] was “Dose-dependent-effect”, the Kd [2] was 42 µM and the IC50 [3] was 4.77 µM. For the same molecule, the IC50 [4] was 6.56 µM, the IC50 at 72 h [5] was 338 µM and the inhibition [6] was “Dose-dependent-effect”. For the same molecule, the Activity [7] was “Active”, the Activity [8] was “Active” and the Activity [9] was “Active”. For the same molecule, the Activity [10] was 22%, the Activity [11] was 68% and the Activity [12] was “Active”. For the same molecule, the Activity [13] was “Active”, the Activity [14] was “Active” and the Activity [15] was “Active”. For the same molecule, the Activity [16] was “Active”, the Activity [17] was “Active” and the Activity [18] was “Active”. The Activity [19] was 0.34 cm3, the Activity [20] was “Non-toxic” and the Activity [21] was “Non-toxic”. For the same molecule, the Activity [22] was “Non-toxic”, the Activity [23] was “Non-toxic” and the Activity [24] was “Non-toxic”. The Activity [25] was “Non-toxic”, the Activity [26] was “Non-toxic” and the Activity [27] was “Non-toxic”. For the same molecule, the Activity [28] was “Non-toxic”, the Activity [29] was “Non-toxic” and the Activity [30] was 106.86 U/L. The Activity [31] was 0.702 mg/dL, the Activity [32] was 28.62 U/L and the Activity [33] was 78.45 U/L. The Activity [34] was 12.11 mg/dL, the Activity [35] was 0.56 mg/dL and the Activity [36] was 0.32 mg/dL. For the same molecule, the Activity [37] was 3.08 mg/dL, the Activity [38] was 6.19 g/dL and the Activity [39] was 6.56 g/dL. It also gave an Activity [40] of 0.48%, an Activity [41] of 0.9% and an Activity [42] of 98.37 mg/dL. For the same molecule, the Activity [43] was 7.9 mg/dL, the Activity [44] was 144.4 mEq/L and the Activity [45] was 3.3 mEq/L. For the same molecule, the Activity [46] was 106.71 mEq/L, the Activity [47] was 4.59 10^3 /uL and the Activity [48] was 6.29 10^6 /uL. The Activity [49] was 14.6 g/dL, the Activity [50] was 39.29% and the Activity [51] was 58.1 fL. For the same molecule, the Activity [52] was 29.7 pg, the Activity [53] was 34.74 g/dL and the Activity [54] was 89.07 10^3 /uL.

`COc1ccc(NC(=O)Nc2c3c(c(OC)c4c2OCO4)[C@H]([C@H]2OC(=O)c4c2ccc(OC)c4OC)N(C)CC3)c(OC)c1` showed an IC50 [3] of 17.5 µM, an IC50 [4] of 20.4 µM and an IC50 at 72 h [5] of 306 µM.
